From patent publication US10874685B2, “Pancreatic cancer therapy and diagnosis” (Deutsches Krebsforschungszentrum Stiftung des Öffentlichen …, priority 2014, dated 2020)
Entries after “also recorded” stand apart in the source; their conditions may differ.

System: KPC-023, KPC-01 and KPC-LM pancreatic cancer cell lines
Assay: Viability of primary and metastatic pancreatic cancer cell lines isolated from KPC mice
Format: cell-based
Details: primary (KPC-023, KPC-01) and metastatic (KPC-LM) lines

O=c1[nH]c2ccccc2n1C1CCN(CCCC(c2ccc(F)cc2)c2ccc(F)cc2)CC1 [pimozide]
viability of KPC mouse pancreatic cancer cell lines: sensitive; also recorded: Dose-dependent effects
